Experimental data reported in patent publication US11180485B2, “Diaryl-azole compound and formulation for controlling harmful organism” (Nippon Soda Co., Ltd., priority 2016, dated 2021).

Columns and labels:
[1] = test system: Culex pipiens molestus; experiment: Test Example 10: efficacy test against Culex pipiens molestus; assay type: in vivo; conditions: 24 h, 20 first-instar larvae in 100 mL, after one day, read-out: mortality rate against first-instar larvae of Culex pipiens molestus (converted)
Experimental: (§1) 5 parts of the compound of the present invention, 93.6 parts of dimethylformamide and 1.4 parts of polyoxyethylene alkyl aryl ether were mixed and dissolved to prepare Emulsion (1) including 5% of an active ingredient.
(§2) An insect mortality rate and a controlling rate were calculated by the numerical equations shown below. Insect mortality rate (%)=(Number of dead insects)/(Number of sample insects)×100 Controlling rate={1−(Nt)/(Nc)}×100
Emulsion (1) was diluted with water so that the concentration of the compound of the present invention was 10 ppm, to prepare a chemical liquid for testing. 20 first-instar larvae of Culex pipiens molestus were released in 100 mL of the chemical liquid. After one day, the number of dead insects was counted, and the insect mortality rate was calculated. The test was performed twice.

[2] = test system: Plutella xylostella; experiment: Test Example 3: efficacy test against Plutella xylostella (cabbage leaf soak); assay type: in vivo; conditions: 72 h, cabbage leaves soaked 30 seconds, second-instar larvae, 3 days after inoculation, read-out: mortality rate against Plutella xylostella
Experimental: as §1, §2
Emulsion (1) was diluted with water so that the concentration of the compound of the present invention was 125 ppm. Cabbage leaves were soaked in the diluted liquid for 30 seconds. Subsequently, the cabbage leaves were put on Petri dishes, followed by inoculating 5 second-instar larvae of Plutella xylostella. The Petri dishes were placed in a thermostatic chamber at a temperature of 25° C. and humidity of 60%. Mortality was investigated 3 days after inoculation, and the insect mortality rate was calculated. The test was performed twice.

[3] = test system: Aphis craccivora; experiment: Test Example 4: efficacy test against Aphis craccivora (spray on black-eyed pea plants); assay type: in vivo; conditions: in Vigna unguiculata, 96 h, sprayed on black-eyed pea plants with nymphs, 4 days after spraying, read-out: mortality rate against Aphis craccivora
Experimental: as §1, §2
Black-eyed pea plants were raised in No. 3 pots and the primary leaves were inoculated with nymphs of Aphis craccivora. Emulsion (1) was diluted with water so that the concentration of the compound of the present invention was 125 ppm. Subsequently, the aforementioned diluted liquid was sprayed on the black-eyed pea plants on which the nymphs of Aphis craccivora were parasitic. The aforementioned black-eyed pea plants were then placed in a thermostatic chamber with a temperature of 25° C. and humidity of 60%. Mortality was investigated 4 days after spraying was carried out, and the insect mortality rate of Aphis craccivora was calculated. The test was performed twice.

[4] = test system: Nilaparvata lugens; experiment: Test Examples 6 and 13: efficacy test against Nilaparvata lugens (rice seedling soak); assay type: in vivo; conditions: 168 h, rice seedlings soaked 30 seconds, second-instar larvae, 7 days after inoculation, read-out: mortality rate against Nilaparvata lugens
Experimental: as §1, §2
(§3) Emulsion (1) was diluted with water so that the concentration of the compound of the present invention was 125 ppm. Rice seedlings were soaked in the diluted liquid for 30 seconds, and subjected to air-drying. Subsequently, the rice seedlings were placed in plastic cases, followed by inoculating 5 second-instar larvae of Nilaparvata lugens. The plastic cases were placed in a thermostatic chamber at a temperature of 25° C. and humidity of 65%. Mortality was investigated 7 days after inoculation, and the insect mortality rate was calculated. The test was performed twice.
as §3, with “8” for “125”

[5] = test system: Phyllotreta striolata; experiment: Test Examples 7 and 14: efficacy test against Phyllotreta striolata (spray on bok-choi seedlings); assay type: in vivo; conditions: 168 h, sprayed on bok-choi seedlings, adults, 7 days after inoculation, read-out: mortality rate against adult Phyllotreta striolata
Experimental: as §1, §2
(§4) Emulsion (1) was diluted with water so that the concentration of the compound of the present invention was 125 ppm, to prepare a diluted liquid for testing. The aforementioned diluted liquid was sprayed on bok-choi seedlings (7th major leaf-development period) planted in No. 3 pots. After the bok-choi seedlings were subjected to air-drying, the seedlings were placed in plastic cups, followed by inoculating 10 adult Phyllotreta striolata. The plastic cups were stored in a thermostatic chamber at a temperature of 25° C. and humidity of 65%. Mortality was investigated 7 days after inoculation, and the insect mortality rate was calculated. The test was performed twice.
as §4, with “8” for “125”

`CCS(=O)(=O)c1cnc(-n2cncn2)nc1-c1ncc(-c2ccc(OC(F)(F)F)cc2)n1C` [Compound No. 3, 5-(ethylsulfonyl)-4-(1-methyl-5-(4-(trifluoromethoxy)phenyl)-1H-imidazol-2-yl)-2-(1H-1,2,4-triazol-1-yl)pyrimidine] showed a mortality at 10 ppm [1] of 100%.

For `CCS(=O)(=O)c1cnc(-c2ncccn2)nc1-c1ncc(-c2ccc(OC(F)(F)F)cc2)n1C` [Compound No. 7, 5-(ethylsulfonyl)-4-(1-methyl-5-(4-(trifluoromethoxy)phenyl)-1H-imidazol-2-yl)-2,2′-bipyrimidine], the mortality at 125 ppm [2] was no less than 80%, the mortality at 125 ppm [3] was no less than 80% and the mortality at 8 ppm ([4]; 8 ppm) was no less than 80%. For the same compound, the mortality at 125 ppm [4] was no less than 80%, the mortality at 8 ppm ([5]; 8 ppm) was no less than 80% and the mortality at 125 ppm [5] was no less than 80%.

Compound `CCS(=O)(=O)c1ccc(-n2cnc(C)n2)nc1-c1ncc(-c2ccc(OC(F)(F)F)cc2)n1C` [Compound No. a-8, 3-(ethylsulfonyl)-6-(3-methyl-1H-1,2,4-triazol-1-yl)-2-(1-methyl-5-(4-(trifluoromethoxy)phenyl)-1H-imidazol-2-yl)pyridine] has a mortality at 125 ppm [2] of no less than 80%, a mortality at 125 ppm [3] of no less than 80% and a mortality at 125 ppm [4] of no less than 80%. The mortality at 10 ppm [1] was 100% and the mortality at 125 ppm [5] was no less than 80%.

In the case of `CCS(=O)(=O)c1cc(C(F)(F)F)ccc1-c1nc(Br)c(-n2cc(I)cn2)n1C` [b-1], the melting point is reported as 202 to 204 °C.

`CCS(=O)(=O)c1cc(C(F)(F)F)ccc1-c1nc(Br)c(-n2cc(C(F)(F)F)cn2)n1C` [b-2] gave a melting point of 176 to 178 °C.

For `CCSc1cnc(-n2cncn2)nc1-c1ncc(-c2ccc(OC(F)(F)F)cc2)n1C` [compound 2, 5-(ethylthio)-4-(1-methyl-5-(4-(trifluoromethoxy)phenyl)-1H-imidazol-2-yl)-2-(1H-1,2,4-triazol-1-yl)pyrimidine], the mortality at 10 ppm [1] was 100%.
